Source: publication PMC11275008, “Anti-Inflammatory and Cancer-Preventive Potential of Chamomile (Matricaria chamomilla L.): A Comprehensive In Silico and In Vitro Study” (Biomedicines, 2024)

Biological target: T1, NF-κB (recombinant human NF-κB; docking used NF-κB p65-RelA) (Homo sapiens, UniProt Q04206)
T1 construct: commercial recombinant protein (Sino Biological); labelled with RED-NHS 2nd generation dye on lysines
Assay: microscale thermophoresis
Type: binding

T1 sequence (Q04206 whole entry): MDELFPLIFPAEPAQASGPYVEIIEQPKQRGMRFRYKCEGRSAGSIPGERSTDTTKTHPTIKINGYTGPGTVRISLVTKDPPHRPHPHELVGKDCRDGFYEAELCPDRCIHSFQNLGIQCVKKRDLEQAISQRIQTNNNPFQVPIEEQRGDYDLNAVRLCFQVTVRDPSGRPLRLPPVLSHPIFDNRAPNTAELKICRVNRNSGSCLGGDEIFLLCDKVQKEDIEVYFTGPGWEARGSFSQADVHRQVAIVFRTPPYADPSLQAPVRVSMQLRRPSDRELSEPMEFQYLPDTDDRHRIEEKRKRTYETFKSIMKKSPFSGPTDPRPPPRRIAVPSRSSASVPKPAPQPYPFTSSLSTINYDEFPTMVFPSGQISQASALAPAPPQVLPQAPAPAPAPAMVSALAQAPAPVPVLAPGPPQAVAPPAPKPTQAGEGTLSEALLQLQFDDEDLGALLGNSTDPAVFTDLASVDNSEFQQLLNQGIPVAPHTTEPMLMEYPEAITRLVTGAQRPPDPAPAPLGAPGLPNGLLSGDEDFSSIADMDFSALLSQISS

- Kd: 943 ± 113 nM
SMILES: CC1(C)CC[C@]2(C)CC[C@]3(C)C(=CC[C@@H]4[C@@]5(C)CC[C@H](O)C(C)(C)[C@@H]5CC[C@]43C)[C@@H]2C1 [β-amyrin]
